Test system: Hair follicles
Assay: Activity of actives on hair follicle growth (cultured scalp hair follicles, elongation by image analysis)
Assay type: cell-based
Conditions: for Growth: average elongation as percentage of control group (=100), 6 days of cultivation (5 of treatment)
Description: Hair follicles were taken from a single donor's scalp sample and transferred in sterile 24 well plates to be cultivated by using a modified Williams' Medium E. Cultivation took place for six days, while the experimental treatment of the follicles started 24 hours from the beginning of the cultivation. Hair follicles were selected for the experiments after 18 h of cultivation. Only those follicles showing a good vital stage and a growth of not less than 0.2 mm were considered suitable to be maintained in culture. All experimental groups and the control were prepared comprising 12 to 18 follicles, plated in 24-well plates at a density of 3 hair follicles/well. The hair follicles showing evident signs of sufferance during the culture for reasons not dependent on the experimental treatment were excluded from the final analysis.
The treatments consisted of mOKG concentrations varying from 0.001 to 0.1% b.w.
The growth performances observed in the treated hair follicles were compared to a control group cultured in the same culture medium free from OMG.
The experiment was terminated after 6 days of cultivation (5 of treatment). The growth of the hair follicles was studied by microphotography and subsequently determined by image analysis.
The average elongation detected in the experimental groups was expressed as percentage value of the growth performed by the control group. The statistical significance of the effects produced by the treatments was evaluated by means of analysis of variance (ANOVA) according the Duncan's method.

[1] = Conc. 0.001% b.w. in culture medium
[2] = Conc. 0.01% b.w. in culture medium
[3] = Conc. 0.1% b.w. in culture medium

| Compound | Growth [1] [%] | Growth [2] [%] | Growth [3] [%] | Factor between effective concentrations (mOKG 0.001% b.w. vs OKG 0.1% b.w.) (mOKG significantly effective at 0.001% b.w. as OKG at 0.1% b.w.) |
| --- | --- | --- | --- | --- |
| O=C(O)CCC(=O)C(=O)O [Alpha-ketoglutarate] | 101 | 103 | 104 |  |
| NCCC[C@H](N)C(=O)O.O=C(O)CCC(=O)C(=O)O [Mono Ornithine Ketoglutarate, Mono-Ornithine (alpha-) ketoglutarate] | 112 | 120 | 122 | 100 |
| Cl.NCCC[C@H](N)C(=O)O [Ornithine hydrochloride] | 100 | 102 | 106 |  |
| Di Ornithine Ketoglutarate | 101 | 107 | 116 |  |
